Measurements taken from publication PMC8237267 (Journal of Medicinal Chemistry, 2021).

Experiments:
[1] = Stability in mouse plasma; type: in vitro ADME; details: read-out: Plasma stability t1/2
Protocol: The plasma stability of the compounds was evaluated in mouse plasma provided from Sigma-Aldrich, Oakville, Canada. The main stock solutions of the compounds were prepared at 10 mM in DMSO, which was diluted to 100 μM in 50% acetonitrile (ACN)/50% water. Aliquots of 356.5 μL of plasma proteins were placed in a heating block and allowed to equilibrate at 37 °C for 5 min. Then, 3.5 μL of 100 μM compound solutions were added to each vial (final concentration of 1 μM). Three quality control (QC) samples at 100, 500, and 1000 nM were prepared in 0.5% ACN. The vial contents were transferred in 50 μL aliquots at time points of 0.5, 5, 10, 20, 30, and 60 mi to a 96-well autosampler plate containing 150 μL of protein precipitation solution. Ice-cold ACN containing internals standards (100 nM glyburide) were used as the protein precipitation solution. After centrifugation at 4 °C, 5500 rpm for 15 min, the supernatant was diluted in MQ water, and injected into the LC/MS/MS for quantitative analysis.
The mobile phase consisted of (A) 0.1% (v/v) formic acid in Milli-Q water; (B) 0.1% (v/v) formic acid in acetonitrile. […] Peak areas were determined from extracted ion chromatograms. The in vitro half-life (t1/2) of parent compounds were determined by regression analysis of the percent parent disappearance vs time curve.

MRC-9 = experiment: Cytotoxicity assay (Cell Titer-Blue, 72 h); type: cell-based; details: MRC-9 (healthy fibroblasts); read-out: In cellulo IC50 MRC-9

SMILES: O=C(NO)c1ccc(CN(C2CC2)S(=O)(=O)c2cc(F)c(F)c(F)c2F)cc1 [Compound 14, 4-(((N-Cyclopropyl-2,3,4,5-tetrafluorophenyl)sulfonamido)methyl)-N-hydroxybenzamide]
- half-life at 1 μM [1]: 41 min
- IC50 (MRC-9): > 20 µM
